Data: patent US5916759A, “Cholesterol oxidase from Brevibacterium sterolicum” (Boehringer Mannheim GmbH, priority 1993, dated 1999)

B1: cholesterol oxidase from Brevibacterium sterolicum, SEQ ID NO 2 (Brevibacterium sterolicum) (protein)
chain: STGPVAPLPTPPNFPNDIALFQQAYQNWSKEIMLDATWVCSPKTPQDVVRLANWAHEHDYKIRPRGAMHGWTPLTVEKGANVEKVILADTMTHLNGITVNTGGPVATVTAGAGASIEAIVTELQKHDLGWANLPAPGVLSIGGALAVNAHGAALPAVGQTTLPGHTYGSLSNLVTELTAVVWNGTTYALETYQRNDPRITPLLTNLGRCFLTSVTMQAGPNFRQRCQSYTDIPWRELFAPKGADGRTFEKFVAESGGAEAIWYPFTEKPWMKVWTVSPTKPDSSNEVGSLGSAGSLVGKPPQAREVSGPYNYIFSDNLPEPITDMIGAINAGNPGIAPLFGPAMYEITKLGLAATNANDIWGWSKDVQFYIKATTLRLTEGGGAVVTSRANIATVINDFTEWFHERIEFYRAKGEFPLNGPVEIRCCGLDQAADVKVPSVGPPTISATRPRPDHPDWDVAIWLNVLGVPGTPGMFEFYREMEQWMRSHYNNDDATFRPEWSKGWAFGPDPYTDNDIVTNKMRATYIEGVPTTENWDTARARYNQIDPHRVFTNGFMDKLLP

Legend:
[1] = molecular target: Cholesterol oxidase I from Brevibacterium sterolicum (Brevibacterium sterolicum, UniProt P22637); details: read-out: KM (affinity for cholesterol); cited from earlier work
Chain of Cholesterol oxidase I from Brevibacterium sterolicum (P22637 46-552): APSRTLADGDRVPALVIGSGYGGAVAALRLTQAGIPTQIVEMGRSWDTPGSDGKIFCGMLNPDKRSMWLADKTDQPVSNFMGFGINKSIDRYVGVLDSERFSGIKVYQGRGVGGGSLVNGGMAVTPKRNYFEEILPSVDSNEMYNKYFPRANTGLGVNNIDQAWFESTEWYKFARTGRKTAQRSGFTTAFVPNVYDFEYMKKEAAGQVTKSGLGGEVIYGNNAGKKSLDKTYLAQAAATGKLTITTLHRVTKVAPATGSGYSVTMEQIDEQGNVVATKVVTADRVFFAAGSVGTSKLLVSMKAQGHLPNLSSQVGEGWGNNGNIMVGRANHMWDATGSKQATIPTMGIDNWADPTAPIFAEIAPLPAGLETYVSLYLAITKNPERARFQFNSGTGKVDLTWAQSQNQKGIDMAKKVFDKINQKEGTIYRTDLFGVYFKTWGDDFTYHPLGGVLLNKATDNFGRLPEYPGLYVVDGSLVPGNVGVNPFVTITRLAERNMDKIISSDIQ

[2] = substrate: CC(C)CCC[C@@H](C)[C@H]1CC[C@H]2[C@@H]3CC=C4C[C@@H](O)CC[C@]4(C)[C@H]3CC[C@]12C; experiment: KM value for cholesterol of the cholesterol oxidase according to the invention; type: biochemical, Brevibacterium sterolicum; details: other: in 0.5 mol/l potassium phosphate buffer pH 7.5 at 25° C.
Description: This cholesterol oxidase has a molecular weight of 60 kD, an isoelectric point of ca. 5.5 (each measured in the Phast System, Pharmacia LKB) and a KM value for cholesterol of 1×10^-4 mol/l (in 0.5 mol/l potassium phosphate buffer pH 7.5 at 25° C.) and is active in a pH range of 5.5 to 8.0.
3 ml potassium phosphate buffer (0.5 mol/l, pH 7.5) containing 0.4% Thesit® (Boehringer Mannheim GmbH, Catalogue No. 006190),
0.1 ml cholesterol solution (0.4% cholesterol, 10% l-propanol, 10% Thesit®),
0.02 ml H2 O2 (0.49 mol/l in redistilled water), it is mixed, after addition of 0.02 ml catalase (from bovine liver, 20 mg protein/ml, specific activity ca. 65,000 U/mg, Boehringer Mannheim GmbH, Catalogue No. 0156744 diluted immediately to 0.075-0.15 U/ml before measurement with ice-cold potassium phosphate buffer, containing 0.4% Thesit) it is again mixed, the solution is brought to a temperature of 25° C. and subsequently the reaction is started by addition of 0.05 ml sample solution. After careful mixing the change in absorbance at 240 nm is monitored and the activity of cholesterol oxidase is determined from the linear region of the absorbance curve: [formula] in which .di-elect cons. 240=15.5 mmol^-1 ×1×cm^-1.

Molecule	Km [1] [µM]	Km [2] [µM]
CC(C)CCC[C@@H](C)[C@H]1CC[C@H]2[C@@H]3CC=C4C[C@@H](O)CC[C@]4(C)[C@H]3CC[C@]12C [cholesterol, 5-cholesten-3-β-ol]	1100	
B1		100
